Experimental data reported in ChEMBL document CHEMBL1201862, “PubChem BioAssay data set” (2004).
Calls of active or inactive are those of the source.

How the values were obtained:
[1] = inhibition of ARNT PAS-B/TACC3 complex formation – biochemical, AlphaScreen, cherry-picked samples, confirmation (AID 651703); type: functional, Homo sapiens;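 also: His-tagged ARNT PAS-B domain paired with GST-TACC3 E629A dimer coactivator fragment; potency of inhibitors that break up the complex and lower AlphaScreen signal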
H9c2 = test: cells; type: functional, cell-based; settings: Rattus norvegicus, H9c2, Myocardium;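 also: confirmatory concentration-response retest of ultra-high-throughput screening hits for modulation of myocardial damage; cell death induced by hydrogen peroxide oxidative stress; compound pretreatment for 60 min then peroxide exposure for 2 h; potency is for protecting the cells against peroxide damage rather than for killing them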
Caspase-3 = biological target: T1, Caspase-3 (Homo sapiens, UniProt P42574); type: functional;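 also: Dose-response selectivity test against caspase-3 for candidate inhibitors of sentrin-specific proteases (SENPs)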
T1 sequence (P42574 whole entry): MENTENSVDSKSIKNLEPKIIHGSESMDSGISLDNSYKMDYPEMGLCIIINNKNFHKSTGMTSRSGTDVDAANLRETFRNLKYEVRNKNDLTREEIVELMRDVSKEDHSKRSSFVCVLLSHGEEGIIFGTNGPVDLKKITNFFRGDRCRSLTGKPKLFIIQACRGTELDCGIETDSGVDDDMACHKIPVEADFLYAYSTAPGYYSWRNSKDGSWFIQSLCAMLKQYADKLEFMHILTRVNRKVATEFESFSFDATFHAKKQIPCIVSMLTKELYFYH

[2] = biological target: T2, Sentrin-specific protease 6 (Homo sapiens, UniProt Q9GZR1); type: functional;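 also: Luminescence-based dose-response confirmatory assay of SENP6 inhibition, following up an ultra-high-throughput screen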
T2 sequence (Q9GZR1 whole entry): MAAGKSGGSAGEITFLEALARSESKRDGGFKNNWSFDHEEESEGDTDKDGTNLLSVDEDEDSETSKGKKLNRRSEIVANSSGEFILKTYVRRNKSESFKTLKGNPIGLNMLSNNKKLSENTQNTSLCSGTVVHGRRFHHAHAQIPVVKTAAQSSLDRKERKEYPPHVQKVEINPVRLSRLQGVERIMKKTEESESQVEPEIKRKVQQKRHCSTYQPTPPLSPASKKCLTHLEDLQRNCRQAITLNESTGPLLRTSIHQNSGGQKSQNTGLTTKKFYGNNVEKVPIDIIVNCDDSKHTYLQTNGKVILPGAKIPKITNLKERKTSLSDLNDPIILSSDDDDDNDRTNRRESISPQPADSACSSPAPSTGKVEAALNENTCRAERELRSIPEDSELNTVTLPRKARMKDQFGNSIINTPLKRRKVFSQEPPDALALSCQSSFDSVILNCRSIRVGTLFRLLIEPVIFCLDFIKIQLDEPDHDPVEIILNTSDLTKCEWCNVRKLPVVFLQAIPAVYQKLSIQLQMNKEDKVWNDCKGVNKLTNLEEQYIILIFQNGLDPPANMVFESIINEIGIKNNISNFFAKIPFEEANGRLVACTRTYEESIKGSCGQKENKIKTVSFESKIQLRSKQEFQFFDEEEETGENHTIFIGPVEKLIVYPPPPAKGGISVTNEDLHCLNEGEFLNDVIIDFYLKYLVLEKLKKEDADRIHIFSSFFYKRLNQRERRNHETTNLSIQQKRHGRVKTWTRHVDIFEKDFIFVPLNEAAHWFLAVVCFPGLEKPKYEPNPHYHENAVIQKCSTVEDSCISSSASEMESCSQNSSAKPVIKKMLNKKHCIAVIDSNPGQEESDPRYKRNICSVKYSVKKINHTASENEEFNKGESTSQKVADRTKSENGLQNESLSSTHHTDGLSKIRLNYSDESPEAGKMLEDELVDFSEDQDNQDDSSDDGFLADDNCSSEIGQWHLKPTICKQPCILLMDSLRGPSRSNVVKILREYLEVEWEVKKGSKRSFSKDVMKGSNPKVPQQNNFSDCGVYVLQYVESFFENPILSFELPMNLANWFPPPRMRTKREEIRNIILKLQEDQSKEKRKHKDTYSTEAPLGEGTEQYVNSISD

[3] = biological target: T3, Sentrin-specific protease 7 (Homo sapiens, UniProt Q9BQF6); type: functional;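 also: Luminescence-based dose-response confirmation of ultra-high-throughput screening hits, measuring inhibition of SENP7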
T3 sequence (Q9BQF6 whole entry): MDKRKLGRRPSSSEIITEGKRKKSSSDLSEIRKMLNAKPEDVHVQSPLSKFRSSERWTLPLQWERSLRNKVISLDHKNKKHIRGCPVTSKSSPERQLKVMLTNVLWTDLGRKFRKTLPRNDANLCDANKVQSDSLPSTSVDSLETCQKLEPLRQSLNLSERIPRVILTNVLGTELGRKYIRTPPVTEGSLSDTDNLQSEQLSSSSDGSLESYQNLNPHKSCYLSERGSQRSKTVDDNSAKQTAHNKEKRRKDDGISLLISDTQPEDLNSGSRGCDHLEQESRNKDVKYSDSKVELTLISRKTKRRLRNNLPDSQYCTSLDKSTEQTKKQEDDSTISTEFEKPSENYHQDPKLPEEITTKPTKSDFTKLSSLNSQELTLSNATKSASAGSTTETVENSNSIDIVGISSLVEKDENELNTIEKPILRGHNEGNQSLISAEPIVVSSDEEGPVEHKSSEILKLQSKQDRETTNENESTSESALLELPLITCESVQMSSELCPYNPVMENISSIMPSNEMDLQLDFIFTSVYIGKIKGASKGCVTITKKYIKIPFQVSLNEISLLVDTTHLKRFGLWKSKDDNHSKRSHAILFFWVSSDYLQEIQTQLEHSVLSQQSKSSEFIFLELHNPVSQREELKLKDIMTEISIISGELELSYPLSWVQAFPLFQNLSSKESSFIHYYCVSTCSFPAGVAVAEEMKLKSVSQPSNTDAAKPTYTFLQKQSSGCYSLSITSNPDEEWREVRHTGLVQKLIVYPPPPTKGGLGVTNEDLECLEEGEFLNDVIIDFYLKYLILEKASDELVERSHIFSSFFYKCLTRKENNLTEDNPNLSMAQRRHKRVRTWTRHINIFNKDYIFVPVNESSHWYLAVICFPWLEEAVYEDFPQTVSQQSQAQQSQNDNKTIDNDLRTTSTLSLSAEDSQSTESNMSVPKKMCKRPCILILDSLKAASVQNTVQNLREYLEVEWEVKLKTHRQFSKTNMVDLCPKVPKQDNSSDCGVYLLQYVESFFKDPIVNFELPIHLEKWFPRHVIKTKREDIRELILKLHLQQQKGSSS

[4] = biological target: T4, Sentrin-specific protease 8 (Homo sapiens, UniProt Q96LD8); type: functional;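 also: luminescence read-out of SENP8 inhibition, dose-response confirmation following an ultra-high-throughput screen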
T4 sequence (Q96LD8 whole entry): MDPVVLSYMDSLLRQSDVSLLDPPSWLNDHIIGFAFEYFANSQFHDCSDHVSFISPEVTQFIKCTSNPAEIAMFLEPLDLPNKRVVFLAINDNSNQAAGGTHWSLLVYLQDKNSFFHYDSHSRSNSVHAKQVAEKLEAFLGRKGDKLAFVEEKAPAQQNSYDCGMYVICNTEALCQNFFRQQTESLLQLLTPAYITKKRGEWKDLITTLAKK

[5] = biological target: DNA (cytosine-5)-methyltransferase 1 (Homo sapiens, UniProt P26358); test: inhibition of DNA methylation by DNMT1 – biochemical, fluorescent molecular beacon, confirmation (AID 602386); type: functional
Chain of DNA (cytosine-5)-methyltransferase 1 (P26358 whole entry, the tested form may be a part): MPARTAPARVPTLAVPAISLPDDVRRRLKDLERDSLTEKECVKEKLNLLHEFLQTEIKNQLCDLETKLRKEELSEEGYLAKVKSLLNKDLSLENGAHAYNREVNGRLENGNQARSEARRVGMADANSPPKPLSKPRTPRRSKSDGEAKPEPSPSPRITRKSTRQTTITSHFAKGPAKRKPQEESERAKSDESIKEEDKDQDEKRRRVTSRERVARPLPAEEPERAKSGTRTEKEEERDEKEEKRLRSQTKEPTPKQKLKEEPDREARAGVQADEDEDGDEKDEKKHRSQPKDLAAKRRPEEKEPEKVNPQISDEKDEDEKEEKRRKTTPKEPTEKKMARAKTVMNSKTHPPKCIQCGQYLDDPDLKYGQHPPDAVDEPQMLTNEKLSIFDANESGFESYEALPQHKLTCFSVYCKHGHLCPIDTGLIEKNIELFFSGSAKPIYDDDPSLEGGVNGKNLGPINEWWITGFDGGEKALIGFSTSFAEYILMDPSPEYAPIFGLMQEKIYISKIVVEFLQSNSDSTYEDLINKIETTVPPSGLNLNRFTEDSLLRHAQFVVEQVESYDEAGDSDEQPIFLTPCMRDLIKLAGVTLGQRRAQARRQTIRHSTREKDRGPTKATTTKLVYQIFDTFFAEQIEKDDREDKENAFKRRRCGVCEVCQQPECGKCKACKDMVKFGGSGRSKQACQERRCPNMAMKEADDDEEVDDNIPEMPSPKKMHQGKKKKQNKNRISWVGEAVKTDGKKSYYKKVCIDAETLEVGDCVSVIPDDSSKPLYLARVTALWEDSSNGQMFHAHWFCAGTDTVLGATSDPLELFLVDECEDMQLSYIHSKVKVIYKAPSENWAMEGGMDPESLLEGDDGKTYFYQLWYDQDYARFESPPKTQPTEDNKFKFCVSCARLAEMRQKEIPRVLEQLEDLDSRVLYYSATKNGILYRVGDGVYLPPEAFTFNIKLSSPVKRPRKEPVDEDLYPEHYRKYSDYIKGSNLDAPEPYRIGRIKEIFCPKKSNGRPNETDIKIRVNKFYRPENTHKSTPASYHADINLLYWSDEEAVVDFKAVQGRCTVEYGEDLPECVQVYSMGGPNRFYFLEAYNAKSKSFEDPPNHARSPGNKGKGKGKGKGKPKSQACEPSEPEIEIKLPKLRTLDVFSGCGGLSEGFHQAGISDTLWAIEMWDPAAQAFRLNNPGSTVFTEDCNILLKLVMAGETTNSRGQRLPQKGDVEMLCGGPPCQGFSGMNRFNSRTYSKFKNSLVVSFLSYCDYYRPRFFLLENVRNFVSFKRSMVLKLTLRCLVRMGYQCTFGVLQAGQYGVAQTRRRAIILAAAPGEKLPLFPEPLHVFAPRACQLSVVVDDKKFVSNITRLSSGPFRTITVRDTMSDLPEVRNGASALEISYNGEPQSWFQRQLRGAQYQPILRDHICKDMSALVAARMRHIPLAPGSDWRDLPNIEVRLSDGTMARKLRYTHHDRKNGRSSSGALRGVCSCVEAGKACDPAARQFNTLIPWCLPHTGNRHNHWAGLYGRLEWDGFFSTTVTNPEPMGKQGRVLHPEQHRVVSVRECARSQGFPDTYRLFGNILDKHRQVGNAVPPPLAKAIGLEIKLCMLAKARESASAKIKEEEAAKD

[6] = biological target: T5, Carboxy-terminal domain RNA polymerase II polypeptide A small phosphatase 1 (Homo sapiens, UniProt Q9GZU7); test: CTDSP1 inhibitors, concentration-response, biochemical, absorbance readout, ultra-high-throughput screen actives (AID 540297); type: functional
T5 sequence (Q9GZU7 whole entry): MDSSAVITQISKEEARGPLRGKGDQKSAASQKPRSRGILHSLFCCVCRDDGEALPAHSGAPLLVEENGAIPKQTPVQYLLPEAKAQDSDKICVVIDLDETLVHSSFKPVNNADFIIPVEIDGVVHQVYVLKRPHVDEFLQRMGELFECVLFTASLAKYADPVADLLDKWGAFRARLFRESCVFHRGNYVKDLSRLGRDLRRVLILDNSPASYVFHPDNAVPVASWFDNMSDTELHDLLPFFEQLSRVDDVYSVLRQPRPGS

[7] = activation of miR-122 Renilla sensor silencing – cell-based, Huh7 psiCHECK-miR122, Renilla luciferase, cherry-picked, dose response (AID 651956); type: functional;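 also: huh7 hepatoma cells stably carrying a psiCHECK-2 miR-122 sensor plasmid; renilla luciferase signal reporting endogenous miR-122 activity after 48 h compound exposure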
[8] = Luminescence Cell-Based Dose Retest to Confirm Inhibitors of Cancer Stem Cells. [Related pubchem assays (depositor defined):AID2717, AID2721]; type: functional; settings: Homo sapiens
[9] = viability loss of HMLE_sh_eGFP cells – cell-based, luminescence, counter-screen for HMLE_sh_ECad selective toxicity project, dose response (AID 463074); type: functional, Homo sapiens;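 also: HMLE human mammary epithelial cells expressing control shRNA against eGFP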
[10] = viability of uninfected HEp-2 cells – cell-based, HTS, cytotoxicity control for RSV inhibitor project, dose response (AID 2410); type: functional; settings: human respiratory syncytial virus
[11] = biological target: Induced myeloid leukemia cell differentiation protein Mcl-1 (Homo sapiens, UniProt Q07820); type: functional
Chain of Induced myeloid leukemia cell differentiation protein Mcl-1 (Q07820 whole entry): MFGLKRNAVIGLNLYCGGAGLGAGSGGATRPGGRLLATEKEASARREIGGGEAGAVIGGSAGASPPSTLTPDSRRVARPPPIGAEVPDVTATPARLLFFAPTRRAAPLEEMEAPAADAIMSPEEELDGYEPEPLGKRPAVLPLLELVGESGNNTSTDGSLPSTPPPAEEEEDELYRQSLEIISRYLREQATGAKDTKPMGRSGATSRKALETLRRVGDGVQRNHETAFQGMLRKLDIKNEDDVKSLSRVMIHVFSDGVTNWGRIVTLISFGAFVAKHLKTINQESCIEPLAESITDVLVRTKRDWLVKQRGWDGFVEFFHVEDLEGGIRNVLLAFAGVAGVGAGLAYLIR

[12] = bead-based luminescence quenchers, dual-tagged ARNT – biochemical, AlphaScreen, cherry-pick, artefact control for ARNT-TACC3 interaction inhibitor project, dose response (AID 651705); type: functional;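 also: AlphaScreen bead proximity signal that flags compounds interfering with the detection technology; potency reflects signal decrease which marks the compound as an assay artifact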
[13] = Trypanosoma cruzi growth suppression in host cells – NIH3T3 host cells, beta-gal luminescence, confirmation (AID 2044); type: functional, cell-based;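 also: intracellular parasites grown in NIH/3T3 mouse fibroblasts as host cells; luminescent beta-galactosidase reporter signal from transgenic T. cruzi replicating inside host cells; inhibitors lower the luminescence signal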
[14] = NIH3T3 cell viability loss – ATP luminescence, mouse fibroblasts, counter-screen, dose response (AID 2010); type: functional, cell-based;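 also: cells exposed to compound for about 90 hours before reading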
Streptococcus = test: GAS UMAA2166 growth inhibition – luminescence, BacTiterGlo, counter-screen for streptokinase expression inhibitor project, dose response (AID 1915); type: functional, organism-based;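 also: potency for reduction of bacterial viability or growth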
[15] = tested on: Streptococcus sp. 'group A'; test: Streptococcus pyogenes SK(-)GAS viability under kanamycin – luminescence, BacTiterGlo, confirmation, counter-screen for streptokinase expression inhibitor project, dose response (AID 1900); type: functional, organism-based
[16] = A cytotoxicity screen of small molecule inhibitors of the PhoP region in Salmonella typhi identified in the primary screen. [Related pubchem assays: 1850, 1864, 1985 ]; type: functional
Streptokinase A = biological target: T6, Streptokinase A (Streptococcus pyogenes serotype M1, UniProt P10520); test: viability-normalized secreted streptokinase activity reduction – plasminogen activation absorbance, OD405, dose response (AID 1914); type: functional, Streptococcus pyogenes M1 GAS;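 also: secreted streptokinase activity via plasminogen activation per viability signal from cell pellet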
T6 sequence (P10520 whole entry): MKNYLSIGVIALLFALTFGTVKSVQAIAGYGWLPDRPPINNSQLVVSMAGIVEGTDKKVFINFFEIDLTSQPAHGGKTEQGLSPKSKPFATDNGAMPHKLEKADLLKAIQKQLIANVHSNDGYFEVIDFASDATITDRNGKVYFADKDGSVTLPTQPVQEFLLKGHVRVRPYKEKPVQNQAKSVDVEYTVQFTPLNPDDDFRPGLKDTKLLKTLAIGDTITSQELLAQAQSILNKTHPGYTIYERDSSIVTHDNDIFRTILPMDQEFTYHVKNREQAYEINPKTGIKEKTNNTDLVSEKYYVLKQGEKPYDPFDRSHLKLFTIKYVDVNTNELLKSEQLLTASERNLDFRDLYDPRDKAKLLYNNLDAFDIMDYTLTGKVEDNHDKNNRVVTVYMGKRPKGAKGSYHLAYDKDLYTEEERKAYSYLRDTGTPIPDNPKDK

[17] = Vero E6 cell cytotoxicity, dose response, cytotoxicity control for non-replicating M. tuberculosis project, secondary assay (AID 492998); type: functional, VeroE6; settings: Vero C1008
cells = type: functional
[18] = THP-1 cell cytotoxicity, dose response, cytotoxicity control for non-replicating M. tuberculosis project (AID 489025); type: functional
[19] = intracellular Trypanosoma cruzi inhibitors in host cells – cell-based, plate reader, cherry-pick samples, set 3, dose response (AID 651818); type: functional;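 also: compounds incubated with infected cells for about four days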

COCCn1c(N)c(C(=O)NCc2cccs2)c2nc3ccccc3nc21
AC50 [1]: 130 µM (active)

Cc1c(Cl)cnc(NC(=O)COC(=O)c2ccc([N+](=O)[O-])s2)c1Cl
IC50 (H9c2): > 79 µM (inactive) | IC50 (Caspase-3): 11.1 µM (active) | IC50 [2]: 5.92 µM (active) | IC50 [3]: 10.6 µM (active) | IC50 [4]: 6.85 µM (active)

O=C1CC(=O)NC(SCC(=O)Nc2ccccc2[N+](=O)[O-])=N1
IC50 [5]: 8.51 µM (active) | IC50 [6]: 4.04 µM (active)

O=C(O)c1cccc(-c2nnn(Cc3ccccc3Cl)n2)c1
IC50 (Caspase-3): 15.6 µM (active) | IC50 [2]: > 100 µM (inactive) | IC50 [3]: > 100 µM (inactive) | IC50 [4]: 10.9 µM (active)

COc1ccc(-c2c(C)nn3c(N)c(-c4ccccc4)cnc23)cc1OC
AC50 [7]: 6.96 µM (active) | AC50 [8]: 11.9 µM (active) | AC50 [9]: 34.8 µM (active) | CC50 [10]: 43.3 µM (active)

O=C(COC(=O)c1ccc(NS(=O)(=O)c2cccs2)cc1)NCc1ccco1
IC50 [5]: 9.6 µM (active) | IC50 [11]: 3.09 µM (active)

O=C(CSc1ccc2nnc(-c3ccccn3)n2n1)Nc1ccccc1C(F)(F)F
AC50 [12]: 136 µM (active)

Cc1ccc(C(=O)COC(=O)c2cccc(NC(=O)c3ccc([N+](=O)[O-])cc3[N+](=O)[O-])c2)cc1
EC50 [13]: 1.11 µM (active) | IC50 (Caspase-3): 22.2 µM (active) | IC50 [2]: 4.89 µM (active) | IC50 [3]: 5.97 µM (active) | EC50 [14]: > 60 µM (not active) | IC50 [4]: > 100 µM (inactive)

O=C(Nc1nnc(-c2ccccn2)o1)c1cccc(Cl)c1
EC50 (Streptococcus): 16.5 µM (active) | EC50 [15]: 2.42 µM (active) | EC50 [16]: > 50 µM (active) | EC50 (Streptokinase A): > 150 µM (not active) | AC50 [12]: 89.6 µM (active) | CC50 [17]: > 20 µM (active) | IC50 (cells): 3.73 µM (active) | CC50 [18]: > 40 µM (active)

CCCCCCCCC(=O)c1c(OC)oc(C=O)cc1=O
IC50 [5]: 8.25 µM (active)

C[C@H]1CN([C@@H](C)CO)C(=O)c2cccc(NC(=O)Nc3cccc4ccccc34)c2O[C@H]1CN(C)S(=O)(=O)c1cccs1
AC50 [19]: 4.61 µM (active)

C[C@@H]1CN([C@@H](C)CO)C(=O)c2cccc(NC(=O)Nc3ccc4c(c3)OCO4)c2O[C@H]1CN(C)Cc1ccc(C(=O)Nc2ccccc2N)cc1
AC50 [19]: 1.04 µM (active)

C[C@H]1CN([C@@H](C)CO)C(=O)c2cccc(NC(=O)CCCCCC(=O)Nc3ccccc3N)c2O[C@@H]1CN(C)CC1CC1
AC50 [19]: 2.88 µM (active)

CCOC(=O)c1ccccc1N/C=C/C(=O)c1ccccc1
IC50 (Caspase-3): 33.1 µM (active) | IC50 [2]: 16.2 µM (active) | IC50 [3]: 9.9 µM (active) | IC50 [4]: 18.7 µM (active)
